These results are taken from patent US5093332A, “Substituted thieno(2,3-B)(1,4)thiazine-6-sulfonamides as antiglaucoma agents” (priority 1990, dated 1992).

The conditions of series [1]: background statement; cited from earlier work.
The conditions of series [2]: background statement; cited from earlier work. The source holds these as a separate data set.
The target of series [3] is T1, human carbonic anhydrase II (Homo sapiens, UniProt P00918). In words: Carbonic Anhydrase Binding Assay.
For series [4], the target named is T1, human carbonic anhydrase II. Nature of the series: Carbonic Anhydrase Inhibition Assay. It is filed as biochemical.
The mark [5] stands for this setting: in vitro binding for human carbonic anhydrase II, read-out: Ki.
[6] abbreviates: in vitro inhibition of human carbonic anhydrase II, read-out: IC50.

Counter-ions that a name gives are not always drawn. Like-named read-outs stand apart in the source and are kept apart here. Where only a bound is given, the exact number is not on record here.

As usually defined, the Ki is a dissociation constant, usually derived from enzyme kinetics or from competition with a known ligand. As usually defined, the IC50 is the concentration that inhibits the measured activity by half.

With `CC(C)(C)NC[C@H](O)COc1nsnc1N1CCOCC1` [(S)-1-tert-Butylamino-3-[(4-morpholino-1,2-5-thiadiazol-3-yl)ox-yl]-2-propanol], in series [1], the reduce intraocular pressure entry is listed as “found to reduce intraocular pressure”. Further, in series [2], the duration of activity entry was “long duration of activity”, the local anesthetic properties entry was “devoid of local anesthetic properties” and the tolerance entry is listed as “minimal tolerance”.

Consider `NS(=O)(=O)c1cc2c(s1)SCC(=O)N2` [Example 1, 2,3-Dihydro-2-oxo-6-sulfamoyl-1H-thieno[2,3-b][1,4]thiazine], for which, in series [3] (setting [5]), the Ki is less than 10 µM. Further, in series [4] (setting [6]), the IC50 was less than 10 µM.

In the case of `NS(=O)(=O)c1cc2c(s1)SC(CC(=O)O)C(=O)N2` (centres unmarked) [Example 2, (2,3-Dihydro-2-oxo-6-sulfamoyl-1H-thieno[2,3-b][1,4]thiazin-3-yl)acetic Acid], the Ki in series [3] (setting [5]) is less than 10 µM. Moreover, the IC50 in series [4] (setting [6]) was less than 10 µM.

The compound `NS(=O)(=O)c1cc2c(s1)S(=O)(=O)CC(=O)N2` [Example 4, 2,3-Dihydro-6-sulfamoyl-2,4,4-trioxo-1H-thieno[2,3-b][1,4]thiazine] came in with a Ki in series [3] of less than 10 µM. The compound also had a concentration for half-maximal inhibition (IC50) in series [4] of less than 10 µM.

Regarding `NS(=O)(=O)c1cc2c(s1)S(=O)(=O)C(CC(=O)O)C(=O)N2` (centres unmarked) [Example 5, (2,3-Dihydro-2,4,4-trioxo-6-sulfamoyl-1H-thieno[2,3-b][1,4]thiazin-3-yl)acetic acid], the Ki in series [3] (setting [5]) was less than 10 µM. The IC50 in series [4] (setting [6]) is less than 10 µM.

Take `NS(=O)(=O)c1cc2c(s1)S(=O)(=O)CCN2` [Example 6, 2,3-Dihydro-4,4-dioxo-6-sulfamoyl-1H-thieno[2,3-b][1,4]thiazine]: the Ki in series [3] (setting [5]) was less than 10 µM. In addition, the IC50 in series [4] (setting [6]) is less than 10 µM.

As for `NS(=O)(=O)c1cc2c(s1)S(=O)(=O)CC(=S)N2` [Example 8, 2,3-Dihydro-4,4-dioxo-6-sulfamoyl-2-thiono-1H-thieno[2,3-b][1,4]thiazine], the inhibition constant (Ki) in series [3] (setting [5]) is less than 10 µM. In series [4] (setting [6]), the IC50 was less than 10 µM.

As for `NS(=O)(=O)c1cc2c(s1)S(=O)(=O)C(CCO)CN2` (centres unmarked) [Example 10, 3-(2-Hydroxyethyl)-2,3-dihydro-4,4-dioxo-6-sulfamoyl-1H-thieno[2,3-b][1,4]thiazine], in series [3] (setting [5]), the Ki is less than 10 µM. The IC50 in series [4] (setting [6]) is less than 10 µM.

For the compound `COC(=O)CC1C(=O)Nc2cc(S(N)(=O)=O)sc2S1(=O)=O` (centres unmarked) [Example 11, Methyl (2,3-Dihydro-2,4,4-trioxo-6-sulfamoyl-1H-thieno[2,3-b][1,4]thiazin-3-yl)acetate], in series [3] (setting [5]), the Ki is less than 10 µM. For the same compound, the IC50 in series [4] (setting [6]) is less than 10 µM.

For `COC(=O)CC1Sc2sc(S(N)(=O)=O)cc2NC1=O` (centres unmarked) [Example 12, Methyl (2,3-Dihydro-2-oxo-6-sulfamoyl-1H-thieno[2,3-b][1,4]thiazin-3-yl)acetate], in series [3] (setting [5]), the inhibitory constant (Ki) was less than 10 µM. Further, in series [4] (setting [6]), the 50% inhibitory concentration (IC50) was less than 10 µM.

As for `NNC(=O)CC1C(=O)Nc2cc(S(N)(=O)=O)sc2S1(=O)=O` (centres unmarked) [Example 13, (2,3-Dihydro-6-sulfamoyl-2,4,4-trioxo-1H-thieno[2,3-b][1,4]thiazin-3-yl)acetic Acid Hydrazide], the Ki in series [3] (setting [5]) is less than 10 µM. For the same compound, the IC50 in series [4] (setting [6]) was less than 10 µM.

Consider `CCOC(=O)NCC1C(=O)Nc2cc(S(N)(=O)=O)sc2S1(=O)=O` (centres unmarked) [Example 14, 2,3-Dihydro-3-ethoxycarbonylaminomethyl-2,4,4-trioxo-6-sulfamoyl-1H-thieno[2,3-b][1,4]thiazine], for which, in series [3] (setting [5]), the inhibition constant Ki was less than 10 µM. In series [4] (setting [6]), the IC50 is less than 10 µM.

For the compound `COCCOCCN(CCOC)C(=O)CC1C(=O)Nc2cc(S(N)(=O)=O)sc2S1(=O)=O` (centres unmarked) [Example 16, N-Methoxyethoxyethyl-N-methoxyethyl(2,3-dihydro-2,4,4-trioxo-6-sulfamoyl-1H-thieno[2,3-b][1,4]thiazin-3-yl)acetamide], the Ki in series [3] (setting [5]) is less than 10 µM. Besides, the concentration for half-maximal inhibition (IC50) in series [4] (setting [6]) was less than 10 µM.

`COCCOCCN(CCOC)CCC1C(=O)Nc2cc(S(N)(=O)=O)sc2S1(=O)=O` (centres unmarked) [Example 17, 3-[2-(N-Methoxyethoxyethyl-N-methoxyethylamino)ethyl]-2,3-dihydro-2,4,4-trioxo-6-sulfamoyl-1H-thieno[2,3-b][1,4]thiazine]: in series [3] (setting [5]), the Ki was less than 10 µM. Moreover, the IC50 in series [4] (setting [6]) is less than 10 µM.

As for `CC(C)CNCCC1CNc2cc(S(N)(=O)=O)sc2S1(=O)=O` (centres unmarked) [Example 18, 3-(2-Isobutylaminoethyl)-2,3-dihydro-4,4-dioxo-6-sulfamoyl-1H-thieno[2,3-b][1,4]thiazine Hydrochloride], the Ki in series [3] (setting [5]) is less than 10 µM. Besides, the concentration for half-maximal inhibition (IC50) in series [4] (setting [6]) is less than 10 µM.

`COCCN(CCOC)CCC1CNc2cc(S(N)(=O)=O)sc2S1(=O)=O` (centres unmarked) [Example 19, 3-[2-Bis-(2-methoxyethyl)aminoethyl]-2,3-dihydro-4,4-dioxo-6-sulfamoyl-1H-thieno[2,3-b][1,4]thiazine Hydrochloride] registered a Ki in series [3] of less than 10 µM. The compound also showed an IC50 in series [4] of less than 10 µM.

On to `COCCOCCN(CCOC)CCC1CNc2cc(S(N)(=O)=O)sc2S1(=O)=O` (centres unmarked) [Example 20, 3-[2-(N-Methoxyethoxyethyl-N-methoxyethylamino)ethyl]-2,3-dihydro-4,4-dioxo-6-sulfamoyl-1H-thieno[2,3-b][1,4]thiazine Hydrochloride], for which, in series [3] (setting [5]), the inhibition constant Ki was less than 10 µM. In addition, the concentration for half-maximal inhibition (IC50) in series [4] (setting [6]) is less than 10 µM.

`CNC(=O)Oc1ccc2c(c1)[C@]1(C)CCN(C)[C@@H]1N2C` [physostigmine]: the reduce intraocular pressure result in series [1] is reported as “reduce intraocular pressure”.

`CC[C@@H]1C(=O)OC[C@@H]1Cc1cncn1C` [pilocarpine]: the reduce intraocular pressure result in series [1] is “reduce intraocular pressure”.
